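Values below derive from 48-hour exposures of cells grown in 96-well plates, with endpoints linearly interpolated between the two concentrations bracketing the appropriate inhibition level. The concentration for 50% growth inhibition is given as GI50.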 Calls of active or inactive are those of the source. No stated cut-off is given here; in the data, active = GI50 up to about 1.1 µM and inactive = higher.
Assays:
Assay in all cases: NCI anticancer screen, dose series, 48 h
A549 = test system: A549
CAKI-1 = test system: CAKI-1
CCRF-CEM = test system: CCRF-CEM
COLO 205 = test system: COLO 205
HCC 2998 = test system: HCC 2998
HL-60 = test system: HL-60
MDA-MB-231 = test system: MDA-MB-231
MDA-N = test system: MDA-N
NCI-H460 = test system: NCI-H460
OVCAR-4 = test system: OVCAR-4
PC-3 = test system: PC-3
SK-MEL-5 = test system: SK-MEL-5
SW-620 = test system: SW-620
U-251 = test system: U-251
UACC-257 = test system: UACC-257
DU-145 = test system: DU-145
K562 = test system: K562
SF-268 = test system: SF-268
SNB-19 = test system: SNB-19
TK-10 = test system: TK-10

Measured: GI50

CCCCC1=NNC(=O)C1
inactive: A549 > 100 µM | CAKI-1 > 100 µM | CCRF-CEM > 100 µM | COLO 205 > 100 µM | HCC 2998 > 100 µM | HL-60 > 100 µM | MDA-MB-231 > 100 µM | MDA-N > 100 µM | NCI-H460 > 100 µM | OVCAR-4 > 100 µM | PC-3 > 100 µM | SK-MEL-5 > 100 µM | SW-620 > 100 µM | U-251 > 100 µM | UACC-257 > 100 µM

CCOC(=O)C(O)(NC(C)=O)C(F)(F)F (centres undefined)
inactive: A549 > 100 µM | CAKI-1 > 100 µM | CCRF-CEM > 100 µM | COLO 205 > 100 µM | DU-145 > 100 µM | HCC 2998 > 100 µM | HL-60 43.8 µM | K562 > 100 µM | MDA-N > 100 µM | OVCAR-4 > 100 µM | PC-3 > 100 µM | SF-268 > 100 µM | SK-MEL-5 > 100 µM | SNB-19 > 100 µM | SW-620 > 100 µM | TK-10 > 100 µM | U-251 > 100 µM | UACC-257 > 100 µM

O=C1O[C@H](c2ccc3c(c2)OCO3)[C@H]2CO[C@@H](c3ccc4c(c3)OCO4)[C@@H]12
inactive: A549 > 100 µM | CAKI-1 77.8 µM | COLO 205 85.5 µM | HCC 2998 > 100 µM | HL-60 > 100 µM | K562 60.1 µM | MDA-MB-231 > 100 µM | MDA-N > 100 µM | NCI-H460 > 100 µM | OVCAR-4 96.2 µM | PC-3 > 100 µM | SF-268 > 100 µM | SK-MEL-5 42 µM | SNB-19 > 100 µM | SW-620 > 100 µM | TK-10 > 100 µM | U-251 > 100 µM | UACC-257 54.6 µM

Cc1ccccc1CN1CC2=C(CCN(Cc3ccccc3)C2=O)N2CCN=C12
inactive: A549 4.76 µM | CAKI-1 4.69 µM | COLO 205 1.86 µM | DU-145 6.14 µM | HCC 2998 4.06 µM | HL-60 3.78 µM | K562 2.96 µM | MDA-MB-231 4.45 µM | NCI-H460 4.24 µM | OVCAR-4 3.27 µM | PC-3 3.58 µM | SF-268 6.87 µM | SK-MEL-5 2.63 µM | SNB-19 6.79 µM | SW-620 4.5 µM | TK-10 7.35 µM | U-251 4.8 µM | UACC-257 3.5 µM

CSc1nncc2[nH]c(C)nc12
inactive: A549 > 100 µM | CAKI-1 > 100 µM | CCRF-CEM > 100 µM | COLO 205 > 100 µM | HCC 2998 > 100 µM | HL-60 > 100 µM | K562 > 100 µM | MDA-MB-231 > 100 µM | MDA-N > 100 µM | OVCAR-4 > 100 µM | PC-3 > 100 µM | SK-MEL-5 > 100 µM | SW-620 > 100 µM | TK-10 > 100 µM | U-251 > 100 µM | UACC-257 > 100 µM

C=CCN1C(=O)/C(=C/c2ccco2)N=C1SC1OC(COC(C)=O)C(OC(C)=O)C(OC(C)=O)C1OC(C)=O (centres undefined)
inactive: CAKI-1 > 100 µM | COLO 205 > 100 µM | DU-145 80.2 µM | HCC 2998 > 100 µM | HL-60 13.2 µM | K562 39.8 µM | MDA-MB-231 > 100 µM | NCI-H460 > 100 µM | OVCAR-4 > 100 µM | PC-3 > 100 µM | SK-MEL-5 > 100 µM | SW-620 > 100 µM | TK-10 > 100 µM | U-251 > 100 µM | UACC-257 > 100 µM

N=C1NC(c2ccc(Cl)cc2)=CC(c2cccc(Cl)c2)S1 (centres undefined)
inactive: A549 24.7 µM | CAKI-1 24.1 µM | CCRF-CEM 22.4 µM | COLO 205 16.4 µM | DU-145 66.1 µM | HCC 2998 27.7 µM | HL-60 38 µM | K562 34.3 µM | MDA-N 21.2 µM | NCI-H460 26.4 µM | OVCAR-4 20.3 µM | PC-3 28.2 µM | SF-268 41.8 µM | SK-MEL-5 27 µM | SNB-19 16.8 µM | SW-620 34.5 µM | TK-10 22.4 µM | U-251 22.4 µM | UACC-257 25.2 µM

CC(CC[C@@]1(C)C(=O)CCC2O[C@]21C)[C@H]1C[C@@H](c2ccoc2)OC1=O (some centres undefined)
inactive: A549 > 100 µM | CAKI-1 26.5 µM | CCRF-CEM 19.6 µM | COLO 205 24.2 µM | DU-145 57.9 µM | HCC 2998 > 100 µM | HL-60 23.7 µM | K562 22.3 µM | MDA-N 57.1 µM | NCI-H460 > 100 µM | OVCAR-4 20.6 µM | PC-3 62.2 µM | SF-268 31 µM | SK-MEL-5 > 100 µM | SNB-19 > 100 µM | SW-620 31.9 µM | TK-10 35.8 µM | U-251 35.9 µM | UACC-257 > 100 µM

CCCC(C(=O)Nc1cccc2nc[nH]c12)C(=O)OCC (centres undefined)
inactive: A549 > 100 µM | DU-145 > 100 µM | HCC 2998 > 100 µM | HL-60 > 100 µM | K562 > 100 µM | MDA-MB-231 > 100 µM | NCI-H460 > 100 µM | OVCAR-4 > 100 µM | PC-3 > 100 µM | SF-268 > 100 µM | SNB-19 > 100 µM | SW-620 > 100 µM | TK-10 > 100 µM | U-251 > 100 µM | UACC-257 > 100 µM

COC(=O)CNCC1OC2OC(C)(C)OC2C1N=[N+]=[N-] (centres undefined)
inactive: A549 > 100 µM | CAKI-1 > 100 µM | CCRF-CEM > 100 µM | COLO 205 > 10 µM | DU-145 > 100 µM | HL-60 > 100 µM | K562 > 100 µM | MDA-N > 100 µM | NCI-H460 > 100 µM | OVCAR-4 > 100 µM | PC-3 > 100 µM | SK-MEL-5 > 100 µM | SNB-19 > 100 µM | SW-620 > 100 µM | TK-10 > 100 µM | U-251 > 100 µM | UACC-257 > 100 µM

CCn1nc(C)c2c1C(=O)NCC(=O)N2
inactive: A549 > 100 µM | CAKI-1 > 100 µM | COLO 205 > 100 µM | DU-145 > 100 µM | MDA-N > 100 µM | NCI-H460 > 100 µM | OVCAR-4 > 100 µM | PC-3 > 100 µM | SF-268 > 100 µM | SK-MEL-5 > 100 µM | SNB-19 > 100 µM | SW-620 > 100 µM | TK-10 > 100 µM | U-251 > 100 µM | UACC-257 > 100 µM

CSC1=N/C(=C\c2ccc(C)cc2)C(=O)N1CN1CCCCC1
inactive: A549 83.4 µM | COLO 205 73.1 µM | DU-145 > 100 µM | K562 74 µM | MDA-MB-231 > 100 µM | MDA-N > 100 µM | OVCAR-4 22.4 µM | PC-3 72.4 µM | SF-268 61.8 µM | SK-MEL-5 > 100 µM | SNB-19 > 100 µM | SW-620 44.7 µM | TK-10 > 100 µM | U-251 > 100 µM

Source: ChEMBL document CHEMBL1201862, “PubChem BioAssay data set” (2004)
